Assay [1] addresses T1, human orexin-1 receptor (hOX1R) (Homo sapiens, UniProt O43613).
T1 construct: expressed in transfected cells; host or cells: Chinese hamster ovary (CHO) cells, grown under G418 selection
T1 sequence (O43613 1-425): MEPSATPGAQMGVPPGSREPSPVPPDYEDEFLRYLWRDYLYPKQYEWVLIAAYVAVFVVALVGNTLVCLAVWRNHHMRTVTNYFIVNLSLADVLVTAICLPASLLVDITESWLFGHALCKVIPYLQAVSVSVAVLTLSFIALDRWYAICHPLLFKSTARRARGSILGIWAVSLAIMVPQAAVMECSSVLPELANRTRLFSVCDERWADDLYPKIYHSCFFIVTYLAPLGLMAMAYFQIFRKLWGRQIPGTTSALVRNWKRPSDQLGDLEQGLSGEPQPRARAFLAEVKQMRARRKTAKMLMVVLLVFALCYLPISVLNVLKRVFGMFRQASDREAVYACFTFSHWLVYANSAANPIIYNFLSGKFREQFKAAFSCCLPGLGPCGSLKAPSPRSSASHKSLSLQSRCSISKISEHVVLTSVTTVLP
The assay can be described thus: FLIPR Ca2+ Flux Assay, CHO cells expressing hOX1R. The settings on record: agonist 70 pM Ala-6,12 orexin-A. The class given is cell-based. As for the experimental part:
(§1) Chinese hamster ovary (CHO) cells expressing the human orexin-1 receptor (hOX1R) or the human orexin-2 receptor (hOX2R) were grown in Iscove's modified DMEM containing 2 mM L-glutamine, […], 1% hypoxanthine-thymidine supplement, 100 U/ml penicillin, 100 μg/ml streptomycin and 10% heat-inactivated fetal calf serum (FCS). The cells were seeded at 20,000 cells/well into Becton-Dickinson black 384-well clear bottom sterile plates coated with poly-D-lysine. All reagents were from GIBCO-Invitrogen Corp. The seeded plates were incubated overnight at 37° C. and 5% CO2. Ala-6,12 human orexin-A, used as the agonist, was prepared as a 1 mM stock solution in 1% bovine serum albumin (BSA) and diluted in assay buffer (HBSS containing 20 mM HEPES, 0.1% BSA and 2.5 mM probenecid, pH7.4) for use in the assay at a final concentration of 70 pM. Test compounds were prepared as 10 mM stock solution in DMSO, then diluted in 384-well plates, first in DMSO, then assay buffer.
On the day of the assay, cells were washed 3× with 100 μl assay buffer and then incubated for 60 minutes (37° C., 5% CO2) in 60 μl assay buffer containing 1 μM Fluo-4AM ester, 0.02% pluronic acid, and 1% BSA. The dye loading solution was then aspirated and cells were washed 3× with 100 μl assay buffer. 30 μl of that same buffer was left in each well. Within the Fluorescent Imaging Plate Reader (FLIPR, Molecular Devices), test compounds were added to the plate in a volume of 25 μl, incubated for 5 minutes, and then 25 μl of agonist was added. Fluorescence was measured for each well at 1 second intervals for 5 minutes, and the height of each fluorescence peak was compared to the height of the fluorescence peak induced by 70 pM of Ala-6,12 orexin-A with buffer in place of test compound.

Assay [2] addresses T2, human orexin-2 receptor (hOX2R) (Homo sapiens, UniProt O43614).
T2 construct: expressed in transfected cells; host or cells: Chinese hamster ovary (CHO) cells, grown under G418 selection
T2 sequence (O43614 1-444): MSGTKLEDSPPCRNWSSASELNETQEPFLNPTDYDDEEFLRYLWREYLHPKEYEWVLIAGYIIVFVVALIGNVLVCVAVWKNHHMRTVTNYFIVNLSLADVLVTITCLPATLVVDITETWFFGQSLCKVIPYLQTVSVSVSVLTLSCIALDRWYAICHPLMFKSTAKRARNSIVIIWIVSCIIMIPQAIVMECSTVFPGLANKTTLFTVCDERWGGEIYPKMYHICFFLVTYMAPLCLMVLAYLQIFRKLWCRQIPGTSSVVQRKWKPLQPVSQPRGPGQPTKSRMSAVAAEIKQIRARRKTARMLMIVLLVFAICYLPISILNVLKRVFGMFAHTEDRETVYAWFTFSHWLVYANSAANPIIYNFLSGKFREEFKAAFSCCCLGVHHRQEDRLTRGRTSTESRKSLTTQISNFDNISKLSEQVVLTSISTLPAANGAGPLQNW
Kind of assay: FLIPR Ca2+ Flux Assay, CHO cells expressing hOX2R. The class given is cell-based. The note with it: agonist 70 pM Ala-6,12 orexin-A. The protocol: The utility of the compounds in accordance with the present invention as orexin receptor OX1R and/or OX2R antagonists may be readily determined without undue experimentation by methodology well known in the art, including the “FLIPR Ca^2+ Flux Assay” (Okumura et al., Biochem. Biophys. Res. Comm. 280:976-981, 2001). In a typical experiment the OX1 and OX2 receptor antagonistic activity of the compounds of the present invention was determined in accordance with the following experimental method. For intracellular calcium measurements, Chinese hamster ovary (CHO) cells expressing the rat orexin-1 receptor or the human orexin-2 receptor, are grown in Iscove's modified DMEM containing 2 mM L-glutamine, […], 1% hypoxanthine-thymidine supplement, 100 U/ml penicillin, 100 μg/ml streptomycin and 10% heat-inactivated fetal calf serum (FCS). The cells are seeded at 20,000 cells/well into Becton-Dickinson black 384-well clear bottom sterile plates coated with poly-D-lysine. All reagents were from GIBCO-Invitrogen Corp. The seeded plates are incubated overnight at 37° C. and 5% CO2. Ala-6,12 human orexin-A as the agonist is prepared as a 1 mM stock solution in 1% bovine serum albumin (BSA) and diluted in assay buffer (HBSS containing 20 mM HEPES, 0.1% BSA and 2.5 mM probenecid, pH7.4) for use in the assay at a final concentration of 70 pM. Test compounds are prepared as 10 mM stock solution in DMSO, then diluted in 384-well plates, first in DMSO, then assay buffer. On the day of the assay, cells are washed 3 times with 100 μl assay buffer and then incubated for 60 min (37° C., 5% CO2) in 60 μl assay buffer containing 1 μM Fluo-4AM ester, 0.02% pluronic acid, and 1% BSA. The dye loading solution is then aspirated and cells are washed 3 times with 100 μl assay buffer. 30 μl of that same buffer is left in each well. Within the Fluorescent Imaging Plate Reader (FLIPR, Molecular Devices), test compounds are added to the plate in a volume of 25 μl, incubated for 5 min and finally 25 μl of agonist is added. Fluorescence is measured for each well at 1 second intervals for 5 minutes and the height of each fluorescence peak is compared to the height of the fluorescence peak induced by 70 pM Ala-6,12 orexin-A with buffer in place of antagonist. For each antagonist, IC50 value (the concentration of compound needed to inhibit 50% of the agonist response) is determined. Alternatively, compound potency can be assessed by a radioligand binding assay (described in Bergman et. al. Bioorg. Med. Chem. Lett. 2008, 18, 1425-1430) in which the inhibition constant (Ki) is determined in membranes prepared from CHO cells expressing either the OX1 or OX2 receptor. The intrinsic orexin receptor antagonist activity of a compound which may be used in the present invention may be determined by these assays.
as §1, with “buffer. […]” for “buffer.”

For `C[C@@H]1CC[C@@H](Oc2ncccc2C(C)(C)O)CN1C(=O)c1ccccc1-n1nccn1` [Example 1, 2-(2-{[(3R,6R)-6-Methyl-1-{[2-(2H-1,2,3-triazol-2-yl)phenyl]carbonyl}piperidin-3-yl]oxy}pyridin-3-yl)propan-2-ol], the IC50 in assay [1] came out at 44.5 nM; in assay [2], 30 nM.

Turning to `C#C[C@@H](O)c1cccnc1O[C@@H]1CC[C@@H](C)N(C(=O)c2ccccc2-n2nccn2)C1` [Example 35, (1R)-1-(2-{[(3R,6R)-6-methyl-1-{[2-(2H-1,2,3-triazol-2-yl)phenyl]carbonyl}piperidin-3-yl]oxy}pyridin-3-yl)prop-2-yn-1-ol], the IC50 in assay [1] turned out to be 64 nM; in assay [2], 27 nM.

`C[C@@H]1CC[C@@H](Oc2ncccc2C(C)(C)O)CN1C(=O)c1ccc(F)cc1-n1nccn1` [Example 4, 2-(2-{[(3R,6R)-1-{[4-fluoro-2-(2H-1,2,3-triazol-2-yl)phenyl]carbonyl}-6-methylpiperidin-3-yl]oxy}pyridin-3-yl)propan-2-ol]: the IC50 in assay [1] is 425 nM; in assay [2] it was 68 nM.

Regarding `C[C@@H]1CC[C@@H](Oc2nccc(C3CC3)c2CO)CN1C(=O)c1ccccc1-n1nccn1` [Example 42, (4-cyclopropyl-2-{[(3R,6R)-6-methyl-1-{[2-(2H-1,2,3-triazol-2-yl)phenyl]carbonyl}piperidin-3-yl]oxy}pyridin-3-yl) methanol], the IC50 in assay [1] was 107 nM; in assay [2], 17 nM.

On to `C[C@@H]1CC[C@@H](Oc2ncccc2C(C)(C)O)CN1C(=O)c1ccccc1-n1ncnn1` [Example 48, 2-(2-{[(3R,6R)-6-Methyl-1-{[2-(2H-tetrazol-2-yl)phenyl]carbonyl}piperidin-3-yl]oxy}pyridin-3-yl)propan-2-ol], for which the IC50 turned out to be 156 nM in assay [1] and 21 nM in assay [2].

Regarding `COc1ccnc(O[C@@H]2CC[C@@H](C)N(C(=O)c3ccccc3-n3nccn3)C2)c1C(C)(C)O` (single isomer, unassigned) [Example 28], the IC50 in assay [1] turned out to be 93 nM; in assay [2], 80 nM.

For the molecule `CCc1ccnc(O[C@@H]2CC[C@@H](C)N(C(=O)c3ccccc3-n3nccn3)C2)c1CO` [Example 40, (4-Ethyl-2-{[(3R,6R)-6-methyl-1-{[2-(2H-1,2,3-triazol-2-yl)phenyl]carbonyl}piperidin-3-yl]oxy}pyridin-3-yl)methanol], the IC50 in assay [1] turned out to be 103 nM; in assay [2] it was 17 nM.

Take `CC(O)c1cccnc1O[C@@H]1CC[C@@H](C)N(C(=O)c2ccccc2-n2nccn2)C1` (stereo partly drawn) [Example 31, 1-(2-{[(3R,6R)-6-methyl-1-{[2-(2H-1,2,3-triazol-2-yl)phenyl]carbonyl}piperidin-3-yl]oxy}pyridin-3-yl)ethanol]: the IC50 worked out at 65 nM in assay [1] and 27 nM in assay [2].

In the case of `C[C@@H]1CC[C@@H](Oc2ncccc2C(C)(C)O)CN1C(=O)c1ccccc1-c1ncccn1` [Example 23, 2-[2-({(3R,6R)-6-methyl-1-[(2-pyrimidin-2-ylphenyl)carbonyl]piperidin-3-yl}oxy)pyridin-3-yl] propan-2-ol], the figures for the IC50 in assay [1] and in assay [2] were 95 nM and 69 nM, respectively.

For the molecule `C[C@@H]1CC[C@@H](Oc2ncccc2C(C)(C)O)CN1C(=O)c1cc(CF)ccc1-n1nccn1` [Example 2, 2-(2-{[(3R,6R)-1-{[5-(Fluoromethyl)-2-(2H-1,2,3-triazol-2-yl)phenyl]carbonyl}-6-methylpiperidin-3-yl]oxy}pyridin-3-yl)propan-2-ol], the IC50 in assay [1] turned out to be 30 nM; in assay [2], 11 nM.

Turning to `C[C@@H]1CC[C@@H](Oc2ncccc2C(C)(C)O)CN1C(=O)c1ccccc1C1CC1` [Example 13, 2-[2-({(3R,6R)-1-[(2-cyclopropylphenyl)carbonyl]-6-methylpiperidin-3-yl}oxy)pyridin-3-yl]propan-2-ol], the IC50 is 94 nM in assay [1] and 34 nM in assay [2].

Turning to `Cc1ccc(-n2nccn2)c(C(=O)N2C[C@H](Oc3ncccc3C(C)(C)O)CC[C@H]2C)c1` [Example 17, 2-(2-{[(3R,6R)-6-methyl-1-{[5-methyl-2-(2i-1,2,3-triazol-2-yl)phenyl]carbonyl}piperidin-3-yl]oxy}pyridin-3-yl)propan-2-ol], the figures for the IC50 in assay [1] and in assay [2] were 50 nM and 37 nM, respectively.

As to `Cc1ccc(CO)c(O[C@@H]2CC[C@@H](C)N(C(=O)c3ccccc3-n3nccn3)C2)n1` [Example 45, (6-Methyl-2-{[(3R,6R)-6-methyl-1-{[2-(2H-1,2,3-triazol-2-yl)phenyl]carbonyl}piperidin-3-yl]oxy}pyridin-3-yl)methanol], the IC50 came to 95 nM in assay [1] and 29 nM in assay [2].
